{"source": "patent US20250368636A1", "about": "“NOVEL HETEROCYCLIC COMPOUND, SALT THEREOF, AND L[…] COMPOSITION” (The University of Electro-Communications, priority 2022, published 2025)", "data": [{"molecular_target": "natural firefly luciferase (Fluc) (Photinus pyralis, UniProt P08659)", "sequence (P08659 whole entry)": "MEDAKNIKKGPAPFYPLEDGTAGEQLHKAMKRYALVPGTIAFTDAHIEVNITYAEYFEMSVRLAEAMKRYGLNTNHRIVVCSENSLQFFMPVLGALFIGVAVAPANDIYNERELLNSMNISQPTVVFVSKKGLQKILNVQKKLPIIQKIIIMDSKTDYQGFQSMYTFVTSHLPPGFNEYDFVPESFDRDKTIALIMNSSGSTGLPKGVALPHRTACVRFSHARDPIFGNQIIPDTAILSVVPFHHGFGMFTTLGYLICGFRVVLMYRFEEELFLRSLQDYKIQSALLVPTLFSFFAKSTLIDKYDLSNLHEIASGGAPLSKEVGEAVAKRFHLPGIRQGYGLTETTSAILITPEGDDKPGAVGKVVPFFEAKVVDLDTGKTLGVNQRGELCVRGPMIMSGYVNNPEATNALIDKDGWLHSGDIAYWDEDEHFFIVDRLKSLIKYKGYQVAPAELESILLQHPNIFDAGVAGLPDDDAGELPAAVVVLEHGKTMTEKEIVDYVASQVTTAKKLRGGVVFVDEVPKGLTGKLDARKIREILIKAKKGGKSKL", "assay": "Measurement of emission spectrum with natural firefly luciferase, ATP magnesium salt and luminescent substrate", "format": "biochemical", "details": "100 μM substrate solution, KPB pH 8.0, Fluc 1 mg/mL, 10 mM ATP magnesium salt, measured for 180 seconds", "procedure": "The emission spectra were measured using the luminescent substrates represented by the structural formulas (1-1) to (1-10) synthesized as described above and the luminescent substrate represented by the structural formula (a) below. The luminescent substrate represented by the structural formula (a) was prepared according to “Synthesis of Luminescent Substrate C” in WO 2021/193069 A1 (PTL 4).\nSpecifically, 5 μL of 500 mM potassium phosphate buffer (KPB, pH 8.0), 5 μL of a 100 μM solution of each luminescent substrate, 5 µL of a 1 mg/mL solution of natural firefly luciferase (Fluc), and 10 μL of a 10 mM ATP magnesium salt solution were mixed, and the emission spectrum was measured for 180 seconds using a luminescence measurement device (AB-1850 manufactured by ATTO Corporation). However, the substrate concentration for the luminescent substrate represented by the structural formula (a) was set to 1 mM, and the substrate concentration for the luminescent substrate represented by the structural formula (1-6) was set to 10 mM. Note that FIGS. 1 to 3 illustrate emission spectra normalized so that the maximum emission intensity was 1.", "units": {"Maximum emission wavelength for each substrate (λmax)": "nm"}, "values": [{"smiles": "Cn1cccc1/C=C/c1ccc(C2=N[C@@H](C(=O)O)CS2)nc1", "note": "[Compound of structural formula (1-4)]", "Maximum emission wavelength for each substrate (λmax)": 660}, {"smiles": "CN(C)c1cnc(/C=C/c2ccc(C3=N[C@@H](C(=O)O)CS3)nc2)s1", "note": "[Compound of structural formula (1-9)]", "Maximum emission wavelength for each substrate (λmax)": 760}, {"smiles": "O=C(O)[C@H]1CSC(c2ccc(/C=C/c3ccc[nH]3)cc2)=N1", "note": "[Compound of structural formula (1-1)]", "Maximum emission wavelength for each substrate (λmax)": 640}, {"smiles": "CN(C)c1ncc(/C=C/c2ccc(C3=N[C@@H](C(=O)O)CS3)cc2)s1", "note": "[Compound of structural formula (1-8)]", "Maximum emission wavelength for each substrate (λmax)": 680}, {"smiles": "Cn1cccc1/C=C/c1ccc(C2=N[C@@H](C(=O)O)CS2)cc1", "note": "[Compound of structural formula (1-3)]", "Maximum emission wavelength for each substrate (λmax)": 640}, {"smiles": "CN(C)c1cnc(/C=C/c2ccc(C3=N[C@@H](C(=O)O)CS3)cn2)s1", "note": "[Compound of structural formula (1-10)]", "Maximum emission wavelength for each substrate (λmax)": 730}, {"smiles": "CN(C)c1ncc(/C=C/c2ccc(C3=N[C@@H](C(=O)O)CS3)nc2)s1", "note": "[Compound of structural formula (1-7)]", "Maximum emission wavelength for each substrate (λmax)": 710}, {"smiles": "O=C(O)[C@H]1CSC(c2ccc(/C=C/c3ccc[nH]3)cn2)=N1", "note": "[Compound of structural formula (1-2)]", "Maximum emission wavelength for each substrate (λmax)": 660}]}]}
